Assay results: patent US20200123127A1, “REMOVAL OF SENESCENCE-ASSOCIATED MACROPHAGES” (EVERON BIOSCIENCES, INC., priority 2016, published 2020)
Read-outs that look alike come from different tables or passages of the source.

How the values were obtained:
[1] = system: p16(Ink4a) expression in SAMs; test: p16(Ink4a) promoter-dependent luciferase activity in alginate bead-elicited macrophages (SAMs) ex vivo; type: cell-based, mouse; conditions: for IL-4-dependent increase in luciferase activity / p16(Ink4a) expression: IL-4 10 ng/mL, 72 hour
Experimental: FIG. 7. Immunomodulatory regulation of p16(Ink4a) and SAβG in macrophages. Peritoneal lavage cells elicited by alginate-encapsulated SCs from p16^Ink4a/Luc mice were treated ex vivo with immunomodulatory agents for 72 hours. A) p16 promoter-dependent luciferase activity (black bars) and […] activity (via 4-MUG hydrolysis) (gray bars) were measured following treatment with M1- and M2-polarizing stimuli: LPS at 1 ng/mL, IFN-γ at 10 ng/mL, LPS/IFN-γ co-treatment, Poly(I:C) at 10 μg/mL, IFN-α at 100 U/mL, IL-4 at 20 ng/mL, IL-13 at 10 ng/ml, and IL-4/IL-13 co-treatment. Results are shown as the mean±standard deviation for at least 3 independent experiments, with statistical significance between treated compared to non-treated samples depicted. B) Dose-dependent response of JAK1/2 inhibitor Ruxolitinib on luciferase activity in elicited macrophages in the presence (gray bars) or absence (black bars) of IL-4 (10 ng/mL) stimulation. Enzyme activities are expressed as the percent activity relative to non-treated (NT) controls per cell. Statistical significance between IL-4 stimulated and non-stimulated cells at each concentration of ruxolitinib is shown.
(§1) FIG. 8. Immunomodulatory regulation of p16(Ink4a) and SAβG in macrophages. Peritoneal lavage cells elicited by alginate-encapsulated SCs from p16^Ink4a/Luc mice were treated ex vivo with immunomodulatory agents for up to 72 hours. (A) mRNA expression of p16(Ink4a) and β-galactosidase (Glb1) in macrophages (relative to B2m expression) with or without LPS stimulation for 72 hours analyzed via qRT-PCR, normalized to non-treated controls. (B) Microphotograph of SAβG-stained adherence-selected macrophages with or without stimulation with LPS (1 ng/mL) for 72 hours (10× objective). (C&D) Kinetics of p16(Ink4a) promoter-dependent luciferase activity per cell with or without LPS stimulation (C) or IL-4 stimulation (D), normalized to activity from non-treated cells at time zero. Results are shown as the mean±standard deviation for at least 3 experiments. Statistical significance with respect to non-treated control at time zero is indicated. (E) Luciferase activity and (3-galactosidase activity (via 4-MUG hydrolysis) from proteose peptone-elicited lavage cells following stimulation with IL-4 (20 ng/mL) for 72 hours, normalized to non-treated controls. (F) Viability following 72 hour dose-response to JAK1/2 inhibitor Ruxolitinib in the presence or absence of IL-4 (10 ng/mL) stimulation, measured by CyQuant Direct DNA-based viability assay. Viability normalized to respective controls lacking Ruxolitinib. (G&H) Dose-response of STAT6 inhibitor AS1517499 against luciferase activity (G) and viability via CyQuant Direct assay (H) following 72 hour treatment in the presence and absence of IL-4 (10 ng/mL). Results normalized to respective controls (with or without IL-4) lacking STAT6 inhibitor. Statistical significance is calculated with respect to the difference between IL-4 stimulated and non-stimulated cells at each concentration of STAT6 inhibitor. (I) Relative luciferase activity per cell following repolarization with M1- and M2-inducing agents. Macrophages were left non-treated (NT) or treated with either LPS (1 ng/ml) or IL-4 (20 ng/ml) for 72 hours (days 1-3), as indicated. For each treatment set, samples were collected at 72 hours (no further treatment; days 4-6=x). Alternatively, cells were washed and placed in fresh medium (−), medium containing LPS (1 ng/mL) and IFN-γ (10 ng/mL), or medium containing IL-4 (20 ng/mL) and IL-13 (10 ng/mL) and incubated for an additional 72 hours prior to sample collection (as indicated for days 4-6). Luciferase activity is expressed as the percent activity per cell relative to non-treated (NT) controls after the first 72 hours.
Luciferase activity of cell lysates was accessed using Bright-Glo™ Luciferase Assay System (Promega; Madison, Wis.) according to manufacturer's instructions with minor modifications. […]

[2] = system: p16(Ink4a) in mLF and mVAT fibroblasts; test: Modulation of p16(Ink4a) in mouse lung and visceral adipose tissue-derived fibroblasts; type: cell-based; conditions: for Modulation of p16(Ink4a): mLF and mVAT Senescent: 20Gy irradiation for senescence induction; for Modulation of p16(Ink4a): mLF and mVAT Proliferating: without irradiation
From the text: We next sought to determine whether immunomodulatory agents, and other small molecules, were capable of selectively modulating p16(Ink4a) expression in SAMs by comparing their effects on p16 expression in SAMs to that of mouse lung fibroblasts (mLF) and mouse visceral adipose tissue-derived fibroblasts (mVAT). […] Immunomodulatory agents cause little to no change in p16 expression in fibroblasts. For example, mouse fibroblasts are reported to respond to LPS and IL-4 (expressing TLR4 and IL-4R, respectively), yet these agents are unable to modulate p16 in fibroblasts.

[3] = system: chronologically aging mice; test: Survival and frailty index of chronologically aging mice; type: in vivo, mouse
Experimental: FIG. 11. OT-82 effects on survival and frailty index of old mice. (A) Male and female mice were treated with OT-82 or with vehicle alone as a negative control. Survival was measured over the course of six treatments.
FIG. 12. Effects of asenins TA-3899 and TA-4812 on survival and frailty index of old mice. Results are provided on a background of FI of mice of the similar age, aged normally without any treatments (black color). Difference between FI of males receiving 3899 and intact mice is statistically significant (p=0.02).
Frailty Index (FI) was determined for individual mice as described previously (Antoch et al. Aging. 2017; 9: 1-12) using a 26 week-old group as a “young mouse” reference. For each mouse, various parameters were measured. These parameters include non-invasive measurements, including age, body weight, grip strength, diastolic blood pressure, and tail blood flow. Additional blood chemistry measurements were also determined, including white blood cell count, neutrophil count, neutrophil percentage, lymphocyte percentage, monocyte percentage, eosinophil percentage, red blood cell count, hemoglobin, hematocrit, mean corpuscular volume, mean corpuscular hemoglobin, mean corpuscular hemoglobin concentration, platelet count, and mean platelet volume. For each parameter mean value and standard deviation were calculated. Animals differing by more than one standard deviation (STDEV) from mean value in any single parameter were excluded from the reference group. Values for each measured parameter were compared with corresponding values for the reference group and assigned a score. The number of deficits an individual mouse expressed was calculated as a ratio of total number of parameters measured and this value is referred to as the frailty index.
Asenins TA-3899 and TA-4812 were evaluated for their effects on survival and frailty index in a model of chronologic aging mice. Treatment lasted for 20 weeks (weeks 77-97 of age). […] Frailty index of males was measured at week 109.

[4] = system: SAMs; test: SAM viability (CyQuant Direct / resazurin); type: cell-based, mouse; conditions: 72 hour; presence or absence of IL-4 10 ng/mL
Experimental: as §1
FIG. 10. Elevated p16(Ink4a) and β-galactosidase is regulated by immunomodulatory agents in macrophages, but not in mesenchymal SCs. Primary cultures of adipose-derived mesenchymal stromal cells (AdMSC) isolated from p16^Ink4a/Luc mice were irradiated (20 Gy) and cultured for 10 days for senescence induction. Mock irradiated cells were used as a proliferating cell control. Response of senescent and proliferating AdMSCs to immunomodulatory agents were compared to that of peritoneal lavage cells elicited by our alginate bead model. A-D) Dose-response curves of LPS (top panels: […]) and Poly(I:C) (bottom panels: C&D) on p16(Ink4a) promoter-dependent luciferase activity (left panels: A&C) and beta-galactosidase activity measured via 4-MUG hydrolysis (right panels: B&D) after 72 hr treatment. […]
FIG. 13. […] SAM viability was determined using the resazurin cell viability assay (Res). […]

[5] = system: human neonatal dermal fibroblasts (NDF); test: Resazurin viability assay, senescent vs proliferating/quiescent human neonatal dermal fibroblasts; type: cell-based; conditions: Homo sapiens, Fibroblast, 72 h, 72 hour exposure, resazurin
Experimental: FIG. 2. Compound A1.1 selectively kills senescent human neonatal dermal fibroblasts (NDF) cells in a dose- and time-dependent manner. (FIG. 2A) Normal proliferating and quiescent NDF cells, and the cells made senescent via exposure to genotoxic agents (doxorubicin, bleomycin and gamma-irradiation) were incubated with increasing concentrations of A1.1. At 72 hours post-treatment cell viability was measured via resazurin viability assay. (FIG. 2B) Compound A1.1 selectively kills senescent NDF cells in time-dependent manner discriminating between acute genotoxic stress and senescence. Acutely damaged NDF cells were irradiated with 4 Gy gamma-irradiation 24 hours before A1.1 treatment. Senescent NDF cells were treated with bleomycin or irradiated with 15 Gy and incubated for 14 days to induce senescence before treatment with A1.1. Proliferating acutely damaged and senescent NDF cell were treated with 1.875-30 μM A1.1 and viable cells were measured at 72 hours after treatment. Average and standard deviation are shown.
Normal proliferating and quiescent NDF cells, and the cells made senescent via exposure to genotoxic agents (doxorubicin, bleomycin and gamma-irradiation) were incubated with increasing concentrations of A1.1. At 72 hours post-treatment cell viability was measured via resazurin viability assay.
A1.1 selectively kills senescent human neonatal dermal fibroblasts (NDF) cells in time-dependent manner discriminating between acute genotoxic stress and senescence ([…]). Acutely damaged NDF cells were irradiated with 4 Gy gamma-irradiation 24 hours before A1.1 treatment. Senescent NDF cells were treated with bleomycin or irradiated with 15 Gy and incubated for 14 days to induce senescence before treatment with A1.1.
(§2) Cytotoxicity of A1.1 analogs against bleomycin-induced senescent human NDFs and rat dermal fibroblasts (RDFs). Activity of analogs was assessed from dose-response curves against irradiation- or bleomycin-induced senescent and proliferating cells to calculate IC50s (uM). The fold difference of proliferating versus senescent cell IC50s was used to assess the level of specific anti-senescent activity of the compounds.
(§3) For generation senescent human neonatal dermal fibroblasts (NDFs) and adult rat dermal fibroblasts (RDFs), cells are treated at ˜10 ug/ml bleomycin for 3 days (for bleomycin-induced senescence) or irradiated once at 20 Gy using a gamma irradiator (Cs source), followed by at least 7 day recovery in fresh medium for induction of senescence. Senescent and non-senescent (proliferating) cells for each cell line are plated into 384-w plate, followed by 72 hour exposure to a dose titration of compounds. Viability measurements are estimated using the resazurin viability assay. Using GraphPad Prism 5, the IC50 values are calculated from the non-linear regression of log-transformed compound concentrations versus dose-response normalized to background and non-treated controls.

[6] = system: RWPE-1 normal prostate epithelial cells; test: dnPTEN-induced senescence model in RWPE-1 cells (SA-beta-Gal and methylene blue staining); type: cell-based; conditions: 10 uM for 72 hours
Experimental: FIG. 3. Activity of A1.1 and analog A1.12 in a model of dnPTEN-induced senescence in RWPE-1 normal prostate epithelial cells. A population of transduced RWPE-1 cells containing doxycycline-inducible dnPTEN was senesced via 1 ug/ml doxycycline for 7 days. Cells which bypass senescence continued to proliferate to form a confluent monolayer. The mixed population of senescent and proliferating cells was treated with A1.1 and A1.12 at 10 uM for 72 hours. SA-beta-Gal staining was used to monitor the amount of senescent cells of treatment groups compared to non-treated control. In addition, methylene blue was used to quantitate overall cell mass, which was comprised mostly of the non-senescent, proliferating cells. Treatment with the anti-senescent compounds led to a substantial decrease in SA-beta-Gal staining, while the amount of methylene blue staining was less affected.
Senescent cells are strongly associated with benign prostate hyperplasia (BPH) and the development of prostate cancer [Vital, P. et al. (2014) The Senescence-Associated Secretory Phenotype Promotes Benign Prostatic Hyperplasia. Am J Pathol, 184(3): 721-731; Burton, D. et al. (2013). Androgen Deprivation-Induced Senescence Promoted Outgrowth of Anderogen-Refractory Protstate Cancer Cells. PLOS One, 8(6):e68003]. […] We sought to evaluate the efficacy of our compounds in a model of RWPE-1 normal prostate epithelial cells transduced with a construct for inducible loss of PTEN function [doxycycline-inducible expression of a dominant-negative PTEN (dnPTEN) mutant]. In the presence of doxycycline, a fraction of the population of transduced cells became senescent, while cells bypassing senescence continued to grow until a confluent monolayer was formed.

[7] = system: adult rat dermal fibroblasts (RDF); test: Resazurin viability assay, senescent vs proliferating rat dermal fibroblasts; type: cell-based; conditions: Rattus norvegicus, Fibroblast, 72 hour exposure, resazurin
Experimental: as §2, §3

## N#CCNC(=O)c1ccc(-c2ccnc(Nc3ccc(N4CCOCC4)cc3)n2)cc1 [CYT387, momelotinib, reference compound]
[1]
  IL-4-dependent increase in luciferase activity / p16(Ink4a) expression: abrogates
[2]
  Modulation of p16(Ink4a): mLF and mVAT Senescent: no change
  Modulation of p16(Ink4a): mLF and mVAT Proliferating: no change

## CCOC(=O)c1sc(SCc2ccccc2)c2c1CN(c1ccc(OC)cc1)C/C2=N\O [Example A1.11, Ethyl 1-(benzylthio)-7-(hydroxyimino)-5-(4-methoxyphenyl)-4,5,6,7-tetrahydro-thieno[3,4-c]pyridine-3-carboxylate]
[3]; OT-82: after 6 courses, 111 weeks of age, asenins: treated weeks 77-97, at 112 weeks of age
  survival rates vs control groups: no statistical significance
[3]; treatment weeks 77-97 of age, measured at week 109
  FI of males compared to intact animals: statistically significant decrease
[1]; SAMs from NDF alginate beads, dose-response testing
  Modulation of p16(Ink4a): SAMs: decrease
[2]
  Modulation of p16(Ink4a): mLF and mVAT Senescent: no change
  Modulation of p16(Ink4a): mLF and mVAT Proliferating: no change

## NC(=O)c1cnc(NCCc2ccc(O)c(Cl)c2)nc1NCc1ccccc1 [AS1517499, reference compound]
[1]
  IL-4-dependent increase in luciferase activity / p16(Ink4a) expression: abrogated
[4]
  viability of macrophages (CyQuant Direct): without affecting viability
[2]
  Modulation of p16(Ink4a): mLF and mVAT Senescent: no change
  Modulation of p16(Ink4a): mLF and mVAT Proliferating: no change

## CCNC(=O)c1sc(SCc2ccccc2)c2c1CC(c1ccc(OC)cc1)C/C2=N\O (stereo not drawn) [Example A1.12]
[5]; proliferating NDF, read-out: IC50 NDFprolif
  IC50: < 10 µM
[5]; senescent NDF, bleomycin-induced, read-out: IC50 NDFsen.bleo
  IC50: < 5 µM
[6]
  proliferating cells / overall cell mass (methylene blue staining): little effect against proliferating cells
[6]; dnPTEN-induced senescence
  senescent cells (number of SA-β-Gal-positive cells): selective elimination of senescent cells
[7]; proliferating RDF, read-out: IC50 RDFprolif
  IC50: < 10 µM
[7]; senescent RDF, bleomycin-induced, read-out: IC50 RDFsen.bleo
  IC50: < 5 µM
